Key:
[1] = tested on: male Sprague Dawley rat (SD rat); assay: Evaluation of the effect of preventing nerve damage: transient focal MCAO/R model, infarct volume by TTC staining; format: in vivo; conditions: 50 mg/kg intraperitoneal injection once 10 minutes before, 1 hour ischemia, 24 hours blood reperfusion, sum of seven brain slices, 5 SD rats
Experimental: The specific solvent was made of dimethyl sulfoxide (DMSO), cremophor EL (CrEL) and water, with the relative volume ratio of 10:20:70, respectively. Besides the foresaid experimental groups, only pure solvent used was treated as vehicle group, and a sham group, which was not administrated with any compound or solvent or with nylon monofilament to cause obstruction and ischemia, was also included.
In this test example, transient focal Middle Cerebral Artery Occlusion/ Reperfusion model (MCAO/R model) was adopted to simulate ischemic stroke for evaluating the subsequent nerve damage. Specifically, male Sprague Dawley rat (SD rat) was adopted and anaesthetized with 2% isoflurane, and then the right common carotid artery, external carotid artery and internal carotid artery were distinguished among them from the neck.
Next, a nylon monofilament with length of 22 millimeters (mm), size number of 4/0 and capped with polysiloxane was inserted into the external carotid artery and along with the […] of Willis to induce obstruction and ischemia in the middle cerebral artery. After causing obstruction and ischemia for 1 hour, the nylon monofilament was removed to allow the blood recirculated to the brain, in other words, to undergo blood reperfusion.
After blood reperfusion for 24 hours, the rat was sacrificed and the brain thereof was placed into a cooled 0.95% saline. Then, 1 mm part of the brain tip was excised, and the rest of the brain was cut in coronal section to obtain seven slices of brain tissue with each thickness of 2 mm. Next, those sliced brain tissues were infiltrated with 1% 2,3,5-triphenyltetrazolium chloride (TTC) for 30-minute at room temperature (about 25°C to 27°C). Afterward, the sliced brain tissues were […] with a 4% […] solution, and then MacroPATH Digital Imaging System was used to record the images and the obtained images were analyzed by ImageJ 1.52a to count the infarct volume percent, which could represent the degree of nerve damage. The foresaid infarct volume percent was obtained by adding the values acquired by multiplying the proportion of infarct area of each sliced brain tissue with their thickness, and the proportion of infarct area was calculated by the equation: (B-A)/B×100%; wherein, "A" represented the undamaged area in the damaged cerebral hemisphere on the right side, and "B" represented the total area of the undamaged cerebral hemisphere on the left side.
Here, 10 minutes before processing the foresaid MCAO/R model, the rats were administrated with the test samples of Examples 1 to 15 by intraperitoneal injection for one time. The administration amount was 50 milligrams per kilogram (mg/kg) or 5 ml/kg. The actual applied amount was depended on the weight of the rates. The treatment for the vehicle group was the same as that of the experimental group except only solvent was used.
The results of TTC staining of the seven sliced brain tissues of the groups of Examples 1 to 15, the vehicle group and the sham group were shown in FIG. 2. 5 SD rats were used for each experimental groups of Examples 1 to 15 and the vehicle group, while only 3 SD rats were used for the sham group. Table 2: The total infarct volume percent of Examples 1 to 15, the vehicle group, and the sham group.

[2] = tested on: male Sprague Dawley rat (SD rat); assay: Neurobehavioral evaluation (Bederson classification) after MCAO/R; conditions: Bederson grade 0 to 4, 50 mg/kg intraperitoneal before MCAO/R

Compound	Total infarct volume percent (%) [1] [%]	Grade, Time point of 0.5-hour after blood reperfusion [2]	Grade, Time point of 1.5-hour after blood reperfusion [2]	Grade, Time point of 24-hour after blood reperfusion [2]	Grade, Time point of 24-hour after blood reperfusion ([2]; 50 mg/kg)
COc1cc(C(=O)NCCC(=O)O)c(OC)c2c1OCO2 [Example 10]	21.76	2.60	2.40	2.20	–
COc1cc(C(=O)NCCc2ccc(O)c(O)c2)c(OC)c2c1OCO2 [Example 8]	22.39	2.40	2.60	2.00	–
CCOC(=O)c1ccc(NC(=O)c2cc(OC)c3c(c2OC)OCO3)cc1 [Example 15]	17.76	2.80	2.60	2.00	–
COc1cc(C(=O)NCCCC(=O)O)c(OC)c2c1OCO2 [Example 7]	15.17	2.60	2.40	–	1.60
COc1cc(C(=O)Nc2c(C)n(C)n(-c3ccccc3)c2=O)c(OC)c2c1OCO2 [Example 13]	32.53	–	–	–	–
COc1cc(CNC(C)=O)c(OC)c2c1OCO2 [Example 5]	20.2	2.40	2.40	2.40	–
COc1ccc(C[C@@H](C)NC(=O)c2cc(OC)c3c(c2OC)OCO3)cc1S(N)(=O)=O [Example 6]	19.67	2.60	2.40	2.20	–
COc1cc(C(=O)Nc2sc(C)cc2C#N)c(OC)c2c1OCO2 [Example 14]	34.77	–	–	–	–
CCCCc1c(C)c(OC)c2c(c1OC)OCO2 [Example 2]	30.75	–	–	–	–
COc1cc(C(=O)Nc2ccc(O)cc2)c(OC)c2c1OCO2 [Example 9]	14.52	2.80	2.40	–	1.40
COc1cc(C(=O)N[C@@H](C)C(=O)O)c(OC)c2c1OCO2 [Example 11]	15.93	2.80	2.00	–	1.60
COc1cc(C(=O)OCc2ccccc2)c(OC)c2c1OCO2 [Example 12]	35.67	–	–	–	–

Reference: EP4230622A1, “NERVE DAMAGE PREVENTING AND NERVE PROTECTING COMPOUNDS, PREPARATION METHOD THEREOF, PHARMACEUTICAL COMPOSITION THEREOF, AND THEIR USE” (Genhealth Pharma Co., Ltd., priority 2022, dated 2023)
